Source: patent publication US8916499B2, “Herbicidal compositions comprising 4-amino-3-chloro-5-fluoro-6-(4-chloro-2-fluoro-3-methoxyphenyl) pyridine-2-carboxylic acid or a derivative thereof and a protoporphyrinogen oxidase inhibitor” (Dow AgroSciences LLC, priority 2012, dated 2014)
Where “and” joins values, the source holds several entries; their conditions need not be identical. Equal values may be shown once.

Legend:
[1] = system: XANST; assay: Pre-emergence soil-applied weed control, greenhouse (Example IV); type: in vivo, Xanthium strumarium L.
Description: (§1) Seeds or nutlets of the desired test plant species were planted in a soil matrix prepared by mixing a loam soil (32 percent silt, 23 percent clay, and 45 percent sand, with a pH of about 6.5 and an organic matter content of about 1.9 percent) and calcareous grit in an 80 to 20 ratio. The soil matrix was contained in plastic pots with a volume of 1 quart and a surface area of 83.6 square centimeters (cm^2).
(§2) Treatments consisted of the benzyl ester of 4-amino-3-chloro-5-fluoro-6-(4-chloro-2-fluoro-3-methoxy-phenyl)pyridine-2-carboxylic acid (compound A) formulated as an SC (suspension concentrate) and various herbicidal components alone and in combination. Forms of compound A were applied on an acid equivalent basis.
(§3) Other herbicidal components were applied on an acid equivalent or active ingredient basis and included the protoporphyrinogen oxidase (PPO)-inhibiting herbicides, flumioxazin formulated as Payload® and oxadiazon formulated as Ronstar® 50W.
(§4) Treatment requirements were calculated based upon the rates being tested, the concentration of active ingredient or acid equivalent in the formulation, and a 12 mL application volume at a rate of 187 L/ha.
(§5) For treatments comprised of formulated compounds, measured amounts of compounds were placed individually in 25 mL glass vials and diluted in a volume of 1.25% (v/v) Agri-Dex® crop oil concentrate (COC) to obtain 12× stock solutions. […] Application solutions were prepared by adding an appropriate amount of each stock solution (e.g., 1 mL) and diluted to the appropriate final concentrations with the addition of 10 mL of an aqueous mixture of 1.25% (v/v) COC so that the final spray solutions contained 1.25% (v/v) COC.
(§6) All stock solutions and applications solutions were visually inspected for compound compatibility prior to application. Spray solutions were applied to the soil with an overhead Mandel track sprayer equipped with a 8002E nozzles calibrated to deliver 187 L/ha over an application area of 0.503 m^2 at a spray height of 18 inches (46 cm) above average pot height. Control pots were sprayed in the same manner with the solvent blank.
The treated and control pots were placed in a greenhouse and top watered as needed. When required to ensure good germination and healthy plants, a fungicide treatment and/or other chemical or physical treatment was applied. The pots were maintained in a greenhouse with an approximate 14 hr photoperiod which was maintained at about 29° C. during the day and 26° C. during the night. […] After approximately 4 weeks, the condition of the test plants as compared with that of the untreated plants was determined visually and scored on a scale of 0 to 100 percent where 0 corresponds to no injury or growth inhibition and 100 corresponds to complete kill. […]

[2] = system: IPOHE; assay: Postemergence foliar-applied weed control, direct seeded rice, greenhouse (Example I); type: in vivo, Ipomoea hederacea Jacq.; settings: g ae/ha Compound A Benzyl Ester+g ai/ha oxadiazon: r33 17.5+0, r34 0+250, r35 17.5+250
[3] = system: IPOHE; assay: Pre-emergence soil-applied weed control, greenhouse (Example IV); type: in vivo, Ipomoea hederacea (L.) Jacq.
Description: as §1, §2, §3, §4, §5, §6
The treated and control pots were placed in a greenhouse and top watered as needed. When required to ensure good germination and healthy plants, a fungicide treatment and/or other chemical or physical treatment was applied. The pots were maintained in a greenhouse with an approximate 14 hr photoperiod which was maintained at about 29° C. during the day and 26° C. during the night. Nutrients (Peters® Excel 15-5-15 5-Ca 2-Mg) were applied in the irrigation solution as needed and water was added on a regular basis. Supplemental lighting was provided with overhead metal halide 1000-Watt lamps as necessary. After approximately 4 weeks, the condition of the test plants as compared with that of the untreated plants was determined visually and scored on a scale of 0 to 100 percent where 0 corresponds to no injury or growth inhibition and 100 corresponds to complete kill.
Colby's equation was used to determine the herbicidal effects expected from the mixtures (Colby, S. R. 1967. Calculation of the synergistic and antagonistic response of herbicide combinations. Weeds 15:20-22.).
The following equation was used to calculate the expected activity of mixtures containing two active ingredients, A and B: Expected=A+B−(A×B/100)

[4] = system: ECHCO; assay: Postemergence foliar-applied weed control, direct seeded rice, greenhouse (Example I); type: in vivo, Echinochloa colona (L.) Link
[5] = system: SETVI; assay: Pre-emergence soil-applied weed control, greenhouse (Example IV); type: in vivo, Setaria viridis (L.) Beauv.
Description: as §1, §2, §3, §4
as §5, with “COC. […]” for “COC.”
The treated and control pots were placed in a greenhouse and top watered as needed. […] After approximately 4 weeks, the condition of the test plants as compared with that of the untreated plants was determined visually and scored on a scale of 0 to 100 percent where 0 corresponds to no injury or growth inhibition and 100 corresponds to complete kill. […]

COc1c(Cl)ccc(-c2nc(C(=O)OCc3ccccc3)c(Cl)c(N)c2F)c1F [Compound A Benzyl Ester, benzyl ester of 4-amino-3-chloro-5-fluoro-6-(4-chloro-2-fluoro-3-methoxy-phenyl)pyridine-2-carboxylic acid]
Visual Weed Control (%) - 29 DAA XANST Obs ([1]; 16 g ae/ha alone): 0%
Visual Weed Control (%) - 29 DAA XANST Obs ([1]; 32 g ae/ha alone): 5%
Visual Weed Control (%) - 21 DAA IPOHE Obs [2]: 10%
Visual Weed Control (%) - 32 DAA IPOHE Obs ([3]; 8 g ae/ha alone): 65%
Visual Weed Control (%) - 28 DAA IPOHE Obs ([3]; 16 g ae/ha alone): 13%
Visual Weed Control (%) - 32 DAA IPOHE Obs ([3]; 16 g ae/ha alone): 83%
Visual Weed Control (%) - 28 DAA IPOHE Obs ([3]; 32 g ae/ha alone): 23%
Visual Weed Control (%) - 21 DAA ECHCO Obs ([4]; g ae/ha Compound A Benzyl Ester+g ai/ha acifluorfen sodium: r11 8+0, r12 0+140, r13 0+280, r14 8+140, r15 8+280): 40%
Visual Weed Control (%) - 20 DAA ECHCO Obs ([4]; g ae/ha Compound A Benzyl Ester+g ai/ha pyraclonil: r15 4.38+0, r16 0+33.75, r17 0+67.5, r18 0+135, r19 4.38+33.75, r20 4.38+67.5, r21 4.38+135): 40%
Visual Weed Control (%) - 20 DAA ECHCO Obs ([4]; g ae/ha Compound A Benzyl Ester+g ai/ha saflufenacil: r14 4.38+0, r15 8.75+0, r16 0+10, r17 0+20, r18 4.38+10, r19 8.75+10, r20 4.38+20, r21 8.75+20): 60% and 80%
Visual Weed Control (%) - 28 DAA SETVI Obs ([5]; 16 g ae/ha alone): 10%
Visual Weed Control (%) - 28 DAA SETVI Obs ([5]; 32 g ae/ha alone): 10%
